This passage reports solubility and pKa results from patent US20240000772A1, “MICROSPHERE FORMULATIONS COMPRISING NALTREXONE AND METHODS FOR MAKING AND USING THE SAME” (Oakwood Laboratories, LLC, priority 2021, published 2024).

Data set [1] can be described thus: Solubility of naltrexone in solvents. It counts as physicochemical. From the text:
(§1) In one aspect, the naltrexone is a free base.
In another aspect, the naltrexone is an HCl salt.

A further data set can be described thus: pKa of naltrexone. Type of data set: physicochemical.
Description: as §1

Molecules are shown by their SMILES. Converted amounts (≈) assume the structure as drawn. Structures can show the parent of a compound that is named as a salt. Where two headings read alike, the source gives them in different places. Some results are limits rather than exact numbers.

Consider `O=C1CC[C@@]2(O)[C@H]3Cc4ccc(O)c5c4[C@@]2(CCN3CC2CC2)[C@H]1O5` [naltrexone HCl salt], for which the solubility in data set [1] (naltrexone HCl salt, in water, read-out: water solubility) was around 100 mg/mL.

Turning to `O=C1CC[C@@]2(O)[C@H]3Cc4ccc(O)c5c4[C@@]2(CCN3CC2CC2)[C@H]1O5` [naltrexone, Naltrexone], the solubility is above 250 mg/mL in data set [1] (benzyl alcohol, organic solvent or mixture, naltrexone free base, in BA, read-out: benzyl alcohol (BA) solubility); 100 mg/mL (≈ 293 mM) in data set [1] (dichloromethane, organic solvent or mixture, naltrexone free base, in DCM, read-out: dichloromethane (DCM) solubility); 26 mg/mL (≈ 76.2 mM) in data set [1] (ethyl acetate, organic solvent or mixture, naltrexone free base, in EA, read-out: ethyl acetate (EA) solubility). In “pKa of naltrexone”, this compound registered a pKa of 8.4.

The solubility is the dissolved amount per volume that the medium holds. In general, pKa refers to the pH at which an ionisable group is half protonated. Low values mean a stronger acid or weaker base, high ones a weaker acid or stronger base.
